In US6417394B2, “Specific salt forms of triphenylethylene derivatives as selective estrogen receptor modulators” (Bristol Myers Squibb Pharma Company, priority 2000, dated 2002):

experiment: aqueous equilibrium solubility; type: physicochemical; details: aqueous suspension on a rotator for 48 hours at room temperature; filtered 0.45-micrometer PTFE; HPLC
Description: The aqueous equilibrium solubility of 3-[4(1,2-diphenyl-but-1-enyl)-phenyl]-acrylic acid, a SERM compound, and its meglumine and lysine salts were determined by placing aqueous suspensions of the corresponding compound on a rotator for 48 hours at room temperature. The samples were filtered using a 0.45-micrometer PTFE filter and analyzed by HPLC. The pH of the filtrate was also determined.

For `CCC(=C(c1ccccc1)c1ccc(C=CC(=O)O)cc1)c1ccccc1` [3-[4(1,2-diphenyl-but-1-enyl)-phenyl]-acrylic acid (free aci], the equilibrium aqueous solubility was 8.6 µg/mL.
In the case of `CCC(=C(c1ccccc1)c1ccc(C=CC(=O)O)cc1)c1ccccc1` [3-[4(1,2-diphenyl-but-1-enyl)-phenyl]-acrylic acid (lysine s], the equilibrium aqueous solubility is reported as 400 µg/mL.
Work on `CCC(=C(c1ccccc1)c1ccc(C=CC(=O)O)cc1)c1ccccc1` [3-[4(1,2-diphenyl-but-1-enyl)-phenyl]-acrylic acid (meglumin] yielded an equilibrium aqueous solubility of 700 µg/mL.
